{
  "source": "ChEMBL document CHEMBL1137128",
  "about": "“Quantitative structure-activity relationship analysis of a series of 2,3-diaryl benzopyran analogues as novel selective cyclooxygenase-2 inhibitors” (Bioorg Med Chem Lett, 2004)",
  "target": "T1, Prostaglandin G/H synthase 2 (Mus musculus, UniProt Q05769)",
  "T1 sequence (Q05769 whole entry)": "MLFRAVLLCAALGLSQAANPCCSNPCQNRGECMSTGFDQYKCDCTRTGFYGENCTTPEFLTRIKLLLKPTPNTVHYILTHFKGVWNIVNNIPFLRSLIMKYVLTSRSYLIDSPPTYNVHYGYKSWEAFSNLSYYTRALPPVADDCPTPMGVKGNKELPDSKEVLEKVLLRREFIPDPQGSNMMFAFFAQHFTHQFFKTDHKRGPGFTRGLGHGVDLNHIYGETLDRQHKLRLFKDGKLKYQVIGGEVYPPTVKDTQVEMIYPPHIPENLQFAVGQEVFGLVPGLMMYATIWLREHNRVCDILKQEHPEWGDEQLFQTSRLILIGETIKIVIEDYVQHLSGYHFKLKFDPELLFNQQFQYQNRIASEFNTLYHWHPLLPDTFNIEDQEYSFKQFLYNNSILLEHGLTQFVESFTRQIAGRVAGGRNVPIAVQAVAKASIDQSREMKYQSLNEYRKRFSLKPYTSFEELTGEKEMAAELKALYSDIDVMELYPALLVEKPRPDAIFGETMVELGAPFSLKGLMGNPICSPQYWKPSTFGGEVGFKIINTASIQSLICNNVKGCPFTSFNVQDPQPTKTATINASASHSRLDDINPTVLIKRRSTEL",
  "assay": "In vitro inhibitory activity against Prostaglandin G/H synthase 2 from mouse peritoneal macrophages",
  "data": [
    {"smiles": "CS(=O)(=O)c1ccc(-c2oc3ccccc3c(=O)c2-c2cc3ccccc3s2)cc1", "values": [
      {"measurement": "IC50", "value": 331, "unit": "nM"}
    ]}
  ]
}
